Reference: article PMC6731241, “L-Type Amino Acid Transporter 1 (LAT1/Lat1)-Utilizing Prodrugs Can Improve the Delivery of Drugs into Neurons, Astrocytes and Microglia” (Scientific Reports, 2019)
Like-named read-outs stand apart in the source and are kept apart here.

Key:
[1] = cited from earlier work
[2] = parameters: method as in PMID 28662899, PMID 27266990; settings: unspecific brain tissue binding, fraction unbound (fu,brain), equilibrium dialysis; cited from earlier work
[3] = cited from earlier work; remark: listed apart in the source
[4] = system: primary cortical neurons and immortalized microglia; assay: Cellular uptake of compounds, neurons and microglia (joint range); assay type: cell-based, mouse; settings: for Uptake of prodrug relative to parent drug 2: primary cortical neurons and immortalized microglia
Description: (§1) Pre-incubation was done with 500 μL of pre-warmed HBSS at 37 °C for 10 min before adding substrates (250 μL in HBSS) for the uptake experiments. The ability of brain cell to carry a known LAT1/Lat1 substrate, the cells were incubated with [^14C]-L-leucine at 37 °C for 2.5 min in uptake buffer (HBSS, 250 μL) containing 0.76–75 μM (0.25 mCi/ml) of [^14C]-L-leucine (PerkinElmer, Waltham, MA, USA).
(§2) The protein concentrations on each plate were determined as a mean of three samples by Bio-Rad Protein Assay, based on the Bradford dye-binding method, using bovine serum albumin (BSA) as a standard protein and measuring the absorbance (595 nm) by multiplate reader (EnVision, Perkin Elmer, Inc., Waltham, MA, USA).

[5] = Bioconversion in primary astrocytes homogenate; assay type: in vitro ADME, mouse; settings: for half-life at 400 µM: mouse, primary astrocytes homogenate, pH 7.4, 37 °C
Description: (§3) The rates of bioconversion of all studied prodrugs in immortalized BV2 microglia and primary astrocytes homogenates were determined at 37 °C. The cell homogenates were prepared by homogenizing 10 × 10^6 cells/ml in HBSS (pH 7.4) with SoniPerp 150 Plus disintegrator (MSE Ltd., London, UK) for 2 s × 3. The incubation mixtures were prepared by mixing cell homogenate (final protein concentration 1.0 mg/mL) with HBSS buffer and 10 mM prodrug stock solution in DMSO (the final concentration of prodrugs was 400 µM and the DMSO concentration […]). The mixture was then incubated for 5 h and the samples (50 µL) were withdrawn at appropriate intervals. The proteins in the samples were precipitated with ice-cold acetonitrile (150 µL) and the samples were centrifuged for 5 min at 12 000 × g at room temperature. The supernatants were collected and analyzed by the LC-MS methods as reported earlier[19],[24],[26]. In blank reactions (chemical stability), the cell homogenate was replaced with same volume of buffer. The pseudo-first-order half-lives (t½) for the rates of bioconversion of the prodrugs were calculated from the slope of the linear portion of the plotted logarithm of remaining prodrug concentration versus time.

mouse primary astrocytes = assay: Cellular uptake of compounds into primary astrocytes; assay type: cell-based
Description: as §1, §2

[6] = Bioconversion in immortalized BV2 microglia homogenate; assay type: in vitro ADME, mouse; settings: for half-life at 400 µM: mouse, pH 7.4, 37 °C
Description: as §3

Lat1 [7] = target: T1, Lat1 (Mus musculus, UniProt Q9Z127); assay: Competitive prodrug uptake with LAT1/Lat1-inhibitor (KMH-233), all cell types; assay type: cell-based; parameters: neurons and microglia also express functional Lat1 on their cell surface; endogenous in cells; host or cells: mouse primary cortical neurons, mouse primary astrocytes, immortalized mouse microglia (BV2); settings: 100 µM KMH-233, range over all cell types
Description: The competitive uptake in the presence of LAT1/Lat1-inhibitor (KMH-233) was carried out as described above with HBSS buffer solution containing 1–10 µM of the studied compounds. The cells were pre-incubated with 100 µM LAT1/Lat1-inhibitor for 10 min and the incubation mixture was removed before adding the studied prodrug and LAT1/Lat1-inhibitor on the cells. The competitive uptake (30 min) with the inhibitor was then carried out as the normal uptake described above. The amounts of studied compounds were analyzed by the LC-MS method and calculated from the spiked standard curve and normalized with the protein concentrations.

[8] = system: immortalized microglia (BV2); assay: Cell viability of immortalized microglia (resazurin); assay type: cell-based; settings: 100 µM, 24 h
Description: 2. Effects of LAT1-Utilizing Prodrugs and Their Parent Drugs on the Cell Viability of Immortalized
Immortalized microglia (BV2) were seeded at the density of 2 × 10^4 cells/well onto collagen-coated 96-well plates. The cells were used for the proliferation experiments one day after seeding. A concentration of 100 µM of studied compounds were added into the growth medium and incubated for 24 h, after which the cell viability was determined by resazurin cell proliferation kit (Sigma, St.
Louis, MO, USA). The samples were measured fluorometrically by monitoring the increase in fluorescence at a wavelength of 590 nm using an excitation wavelength of 560 nm (EnVision, Perkin Elmer, Inc., Waltham, MA, USA), which is directly proportional to aerobic respiration and cellular metabolism of cells. The cell death was confirmed in the decrease of cell amount by visualizing the […]
Figure S2. The cell viability of immortalized microglia (BV2) after 24 h incubation of 100 µM LAT1-utilizing prodrugs (PD1-PD6) and their parent drugs (D1-D3) presented as percentages (%) compared to the untreated cells (ctrl) (mean ± SD, n=3-6). An asterisk denotes a statistically significant difference from the respective control (** P < 0.01, * P < 0.05 one-way ANOVA, followed by […]

Lat1 [9] = target: T1, Lat1; assay: [14C]-L-Leu uptake kinetics, primary cortical neurons and immortalized microglia (joint range); settings: range over primary cortical neurons and immortalized microglia
Lat1 [10] = target: T1, Lat1; assay: [14C]-L-Leu uptake kinetics in primary astrocytes; settings: 0.76–75 µM, 2.5 min
LAT1/Lat1 = system: LAT1/Lat1; parameters: method as in PMID 11557028, PMID 15567481, PMID 19890975; settings: human LAT1 transfected cells or cancer cells expressing hLAT1 or rodent Lat1; read-out: Affinity (Km), previously reported values; cited from earlier work
Lat1 [11] = target: T1, Lat1; assay: [14C]-L-Leu uptake kinetics in primary cortical neurons; settings: 0.76–75 µM, 2.5 min
Lat1 [12] = target: T1, Lat1; assay: [14C]-L-Leu uptake kinetics in immortalized microglia (BV2); settings: 0.76–75 µM, 2.5 min
[13] = system: immortalized microglia (BV2); assay: Cellular uptake of compounds into immortalized microglia (BV2); assay type: cell-based, mouse; settings: 25, 50 and 100 µM (Fig. 4c)
Description: as §1

mouse primary neurons = assay: Cellular uptake of compounds into primary neurons; assay type: cell-based; settings: 25, 50 and 100 µM (Fig. 4c)
Description: as §1

[14] = 400 µM, read-out: Half-life of bioconversion

T1 sequence (Q9Z127 whole entry): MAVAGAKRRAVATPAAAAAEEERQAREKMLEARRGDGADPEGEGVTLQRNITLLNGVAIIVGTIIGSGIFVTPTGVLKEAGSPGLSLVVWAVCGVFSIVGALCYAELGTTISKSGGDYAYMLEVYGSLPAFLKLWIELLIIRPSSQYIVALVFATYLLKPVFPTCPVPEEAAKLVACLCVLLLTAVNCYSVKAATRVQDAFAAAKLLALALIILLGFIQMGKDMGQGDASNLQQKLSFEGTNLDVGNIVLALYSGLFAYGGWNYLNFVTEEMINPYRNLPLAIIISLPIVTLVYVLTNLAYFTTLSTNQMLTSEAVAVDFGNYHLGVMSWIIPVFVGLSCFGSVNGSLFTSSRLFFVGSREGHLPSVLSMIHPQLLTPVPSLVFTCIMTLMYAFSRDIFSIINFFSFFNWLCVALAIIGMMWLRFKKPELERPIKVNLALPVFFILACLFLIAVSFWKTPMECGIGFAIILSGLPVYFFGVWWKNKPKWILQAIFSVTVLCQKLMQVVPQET
T1 sequence (P10852 whole entry partner): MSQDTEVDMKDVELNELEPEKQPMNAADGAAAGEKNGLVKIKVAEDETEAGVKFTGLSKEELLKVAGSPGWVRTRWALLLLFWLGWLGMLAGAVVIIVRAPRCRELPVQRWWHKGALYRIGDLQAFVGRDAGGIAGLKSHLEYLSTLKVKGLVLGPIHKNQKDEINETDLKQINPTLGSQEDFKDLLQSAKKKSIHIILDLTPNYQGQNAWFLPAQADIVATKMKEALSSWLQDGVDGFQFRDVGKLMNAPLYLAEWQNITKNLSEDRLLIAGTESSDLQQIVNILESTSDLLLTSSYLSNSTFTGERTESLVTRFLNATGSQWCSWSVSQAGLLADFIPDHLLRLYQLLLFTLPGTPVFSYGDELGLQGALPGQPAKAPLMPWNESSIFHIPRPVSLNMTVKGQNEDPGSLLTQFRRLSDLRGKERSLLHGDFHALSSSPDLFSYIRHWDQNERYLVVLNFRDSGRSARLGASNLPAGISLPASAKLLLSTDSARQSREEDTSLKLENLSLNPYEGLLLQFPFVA

In the case of `CC(C(=O)Nc1cccc(C[C@H](N)C(=O)O)c1)c1cccc(C(=O)c2ccccc2)c1` (some centres unmarked) [PD2], the “Half-life in vivo (release of ketoprofen)” value ([1]; brain) is listed as 27 min, the “Half-life in vivo (release of ketoprofen)” value ([1]; liver) is listed as 23 min and the “Half-life in vivo (release of ketoprofen)” value ([1]; plasma) is listed as 16 min. For the same compound, the “Brain Protein Binding fu (%)” value [2] was 6.2%, the “Stability in brain S9 subcellular fraction” value ([3]; in vitro media lack co-factors) was “stable and do not release ketoprofen at all” and the “Uptake of prodrug relative to parent drug 2” value [4] was 1–7 times. The “Stability in cell homogenate” value ([5]; astrocytes homogenate) was “completely stable”, the “Uptake of prodrug relative to ketoprofen” value (mouse primary astrocytes) was 10–80 times and the “Stability in cell homogenate” value ([6]; microglia homogenate) was “completely stable”.
For `COc1cc(/C=C/C(=O)Oc2cccc(C[C@H](N)C(=O)O)c2)ccc1O` [PD6], the “Intact prodrug detected after 5 h” value ([3]; brain S9 subcellular fraction) is given as 70%, the half-life at 400 µM ([5]; astrocytes homogenate, read-out: Estimated half-life of bioconversion) is given as over 540 min and the half-life at 400 µM ([6]; tissue homogenate, microglia homogenate, read-out: Estimated half-life of bioconversion) is given as over 540 min.
In the case of `CC(C(=O)Oc1cccc(C[C@H](N)C(=O)O)c1)c1cccc(C(=O)c2ccccc2)c1` (some centres unmarked) [PD3], the “Inhibition of prodrug uptake by LAT1/Lat1-inhibitor” value (Lat1 [7]; 1 µM prodrug) is listed as 47.41–58.32%, the “Half-life in brain S9 subcellular fraction” value ([3]; approximate) is listed as about 1 h and the “t½ in mouse brain S9 subcellular fraction” value ([3]; conversion to ketoprofen) is listed as 51.96 ± 2.32 min. The “Uptake of prodrug relative to parent drug 2” value [4] was 1–7 times, the half-life at 400 µM [5, 14] was 283 ± 15.8 min and the “Uptake of prodrug relative to ketoprofen” value (mouse primary astrocytes) was 10–80 times. The half-life at 400 µM ([6]; immortalized BV2 microglia homogenate, immortalized microglia homogenate, 400 µM, read-out: Half-life of bioconversion) was 201 ± 13.4 min.
For `O=C1OCc2cc(-c3ccc(-c4ccc(CO)cc4)s3)ccc21` [D1, reference compound], the “Brain Protein Binding fu (%)” value [2] is given as 0.03%.
For `COc1cc(/C=C/C(=O)Nc2cccc(C[C@H](N)C(=O)O)c2)ccc1O` [PD5], the “Brain Protein Binding fu (%)” value [2] is given as 7.0%, the “Effect on cell viability” value [8] is given as “slightly increased the cell proliferation” and the “Stability in cell homogenate” value ([5]; astrocytes homogenate) is given as “stable”. The “Stability in cell homogenate” value ([6]; microglia homogenate) was “stable”.
For `COc1cc(/C=C/C(=O)NCc2cccc(C[C@@H](N)C(=O)O)c2)ccc1O` [PD4], the “Inhibition of prodrug uptake by LAT1/Lat1-inhibitor” value (Lat1 [7]; 10 µM prodrug) is listed as 83.24–85.23%, the “Brain Protein Binding fu (%)” value [2] is listed as 13.0% and the “Effect on cell viability” value [8] is listed as “slightly increased the cell proliferation”. The “Stability in cell homogenate” value ([5]; astrocytes homogenate) was “stable” and the “Stability in cell homogenate” value ([6]; microglia homogenate) was “stable”.
For `CC(C)C[C@H](N)C(=O)O` [[^14C]-L-Leu, L-leucine], the Km (Lat1 [9]) was 85.8 to 146 µM, the Vmax (Lat1 [9]) was 0.84–1.90 nmol/min/mg of protein and the Km (Lat1 [10]) was 65.9 ± 14.3 µM. The Vmax (Lat1 [10]) was 2.92 ± 0.36 nmol/min/mg protein, the Km (LAT1/Lat1) was 9 to 52 µM and the Km (Lat1 [11]) was 146 ± 47.3 µM. The Vmax (Lat1 [11]) was 1.90 ± 0.44 nmol/min/mg protein and the Vmax (Lat1 [12]) was 0.84 ± 0.12 nmol/min/mg protein.
In the case of `COc1cc(/C=C/C(=O)O)ccc1O` [D3, ferulic acid, reference compound], the “Brain Protein Binding fu (%)” value [2] is listed as 26.0%, the Cell uptake [13] is listed as “below LLOQ” and the Cell uptake (mouse primary neurons) is listed as “below LLOQ”. For the same compound, the “Amount in cells (under the detection limit)” value ([4]; neurons and microglia) was under 1.0 nM.
For `N[C@H](Cc1cccc(C(=O)OCc2ccc(-c3ccc(-c4ccc5c(c4)COC5=O)s3)cc2)c1)C(=O)O` [PD1], the Half-life in vivo ([1]; brain) is given as 84 min, the Half-life in vivo ([1]; liver) is given as 75 min and the Half-life in vivo ([1]; plasma) is given as 94 min. For the same compound, the “Brain Protein Binding fu (%)” value [2] was 1.4%, the “Half-life in brain S9 subcellular fraction” value ([3]; in vitro, listed as Prodrug 1) was “approximately 4.7 h” and the “Half-life in brain S9 subcellular fraction” value ([3]; in vitro, listed as prodrug 1) was “approximately 5 h”. For the same compound, the “Uptake of prodrug relative to its parent drug” value ([4]; neurons and microglia) was 10–17, the half-life at 400 µM [5, 14] was 348 ± 24.1 min and the half-life at 400 µM ([6]; tissue homogenate, immortalized microglia homogenate, 400 µM, read-out: Half-life of bioconversion) was 238 ± 44.3 min.
